Assay results taken from patent US6737383B1, “Herbicidal oxadiazolidines” (priority 1999, dated 2004).

Experiments:
duck salad = test: Test B flood test duck salad; format: in vivo, Heteranthera limosa
In short: (§1)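 Read-out is a visual response score from 0 (no effect) to 10 (complete control), assigned by comparison with untreated controls. Treatment was applied at the 2-leaf stage, and plants stayed in the greenhouse for twelve to sixteen days before scoring.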

soybean = test: Test B pre/postemergence soybean; format: in vivo, Glycine max
In short: (§2)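 Herbicidal effect was estimated by eye on a ten-point control scale after plants spent twelve to sixteen days in a greenhouse following soil or foliar treatment. Foliar sprays targeted plants at one to four leaves; all doses were formulated in a non-phytotoxic solvent with surfactant.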

pigweed = test: Test B pre/postemergence pigweed; format: in vivo, Amaranthus retroflexus
In short: as §2

velvetleaf = test: Test B pre/postemergence velvetleaf; format: in vivo, Abutilon theophrasti
In short: as §2

morningglory = test: Test B pre/postemergence morningglory; format: in vivo, Ipomoea hederacea
In short: as §2

purple nutsedge = test: Test B pre/postemergence purple nutsedge; format: in vivo, Cyperus rotundus; details: Postemergence; for Nutsedge plant response rating: 10 is complete control
In short: as §2

rape = test: Test B pre/postemergence rape; format: in vivo, Brassica napus
In short: as §2

smallflower flatsedge = test: Test B flood test smallflower flatsedge; format: in vivo, Cyperus difformis
In short: as §1

bedstraw = test: Test B pre/postemergence bedstraw; format: in vivo, Galium aparine
In short: as §2

bamyardgrass = test: Test B flood test barnyardgrass; format: in vivo, Echinochloa crus-galli
In short: as §1

cocklebur = test: Test B pre/postemergence cocklebur; format: in vivo, Xanthium strumarium
In short: as §2

blackgrass = test: Test B pre/postemergence blackgrass; format: in vivo, Alopecurus myosuroides
In short: as §2

corn = test: Test B pre/postemergence corn; format: in vivo, Zea mays
In short: as §2

sugar beet = test: Test B pre/postemergence sugar beet; format: in vivo, Beta vulgaris
In short: as §2

giant foxtail = test: Test B pre/postemergence giant foxtail; format: in vivo, Setaria faberii
In short: as §2

surinam grass = test: Test B pre/postemergence surinam grass; format: in vivo, Brachiaria decumbens
In short: as §2

[1] = Rate 62 g/ha, flood test species, Pre-emergence, visual evaluation after twelve to sixteen days
[2] = Rate 125 g/ha, under heading Pre-emergence, flood test species, visual evaluation after twelve to sixteen days
[3] = Rate 250 g/ha, Pre-emergence (flood test species), scale 0 to 10, 0 is no effect, 10 is complete control
[4] = Rate 500 g/ha, Pre-emergence section of Table B, 0 to 10 scale (0 no effect, 10 complete control)
[5] = Postemergence, Rate 62 g/ha, scale of 0 to 10, 0 is no effect, 10 is complete control
[6] = Postemergence, Rate 500 g/ha, scale of 0 to 10 where 0 is no effect and 10 is complete control
[7] = Preemergence, Rate 62 g/ha, scale 0 to 10 (0 no effect, 10 complete control)
[8] = Preemergence, Rate 125 g/ha, scale 0 to 10, 0 is no effect, 10 is complete control
[9] = Preemergence, Rate 500 g/ha, scale of 0 to 10 where 0 is no effect and 10 is complete control
[10] = Rate 250 g/ha, Postemergence, scale of 0 to 10 where 0 is no effect and 10 is complete control
[11] = Postemergence, Rate 125 g/ha, scale 0 to 10, 0 is no effect, 10 is complete control

SMILES: CC(C)N(C(=O)n1oc(=O)n(CCC2OCCCO2)c1=O)c1ccccc1 [Compound 561]
- Plant response rating, Ducksalad (0 to 10 scale, 0 is no effect, 10 is complete control) (duck salad; [1]): 0
- Ducksalad plant response rating (0 to 10 scale, 0 is no effect, 10 is complete control) (duck salad; [2]): 0
- Ducksalad plant response rating (duck salad; [3]): 0
- Ducksalad plant response rating (duck salad; [4]): 0
- Soybean plant response rating (soybean; [5]): 2
- Plant response rating, Soybean (soybean; [6]): 5
- Soybean plant response rating (soybean; [7]): 0
- Soybean plant response rating (soybean; [8]): 0
- Soybean plant response rating (0 to 10 scale) (soybean; Preemergence, Rate 250 g/ha): 0
- Soybean plant response rating (soybean; [9]): 2
- Plant response rating, Soybean (soybean; [10]): 3
- Redroot pigweed plant response rating (pigweed; [5]): 0
- Plant response rating, Redroot pigweed (pigweed; [6]): 7
- Redroot pigweed plant response rating (pigweed; [7]): 3
- Redroot pigweed plant response rating (pigweed; [8]): 5
- Redroot pigweed plant response rating (0 to 10 scale) (pigweed; Preemergence, Rate 250 g/ha): 9
- Redroot pigweed plant response rating (pigweed; [9]): 9
- Plant response rating, Redroot pigweed (pigweed; [10]): 0
- Velvetleaf plant response rating (velvetleaf; [5]): 0
- Plant response rating, Velvetleaf (velvetleaf; [6]): 0
- Velvetleaf plant response rating (velvetleaf; [7]): 0
- Velvetleaf plant response rating (velvetleaf; [8]): 0
- Velvetleaf plant response rating (0 to 10 scale) (velvetleaf; Preemergence, Rate 250 g/ha): 0
- Velvetleaf plant response rating (velvetleaf; [9]): 2
- Plant response rating, Velvetleaf (velvetleaf; [10]): 0
- Morningglory plant response rating (morningglory; [5]): 1
- Morningglory plant response rating (morningglory; [11]): 4
- Plant response rating, Morningglory (morningglory; [6]): 9
- Morningglory plant response rating (morningglory; [7]): 0
- Morningglory plant response rating (morningglory; [8]): 0
- Morningglory plant response rating (0 to 10 scale) (morningglory; Preemergence, Rate 250 g/ha): 2
- Morningglory plant response rating (morningglory; [9]): 4
- Plant response rating, Morningglory (morningglory; [10]): 5
- Nutsedge plant response rating (purple nutsedge; Rate 62 g/ha, scale of 0 to 10, 0 is no effect): 0
- Nutsedge plant response rating (purple nutsedge; Rate 125 g/ha, scale 0 to 10, 0 is no effect): 2
- Plant response rating, Nutsedge (purple nutsedge; Rate 500 g/ha, scale of 0 to 10 where 0 is no effect and 10 is complete control): 4
- Rape plant response rating (rape; [5]): 4
- Rape plant response rating (rape; [11]): 4
- Plant response rating, Rape (rape; [6]): 4
- Rape plant response rating (rape; [7]): 2
- Rape plant response rating (rape; [8]): 2
- Rape plant response rating (0 to 10 scale) (rape; Preemergence, Rate 250 g/ha): 5
- Rape plant response rating (rape; [9]): 9
- Plant response rating, Rape (rape; [10]): 4
- Plant response rating, S. Flatsedge (0 to 10 scale, 0 is no effect, 10 is complete control) (smallflower flatsedge; [1]): 0
- S. Flatsedge plant response rating (0 to 10 scale, 0 is no effect, 10 is complete control) (smallflower flatsedge; [2]): 0
- S. Flatsedge plant response rating (smallflower flatsedge; [3]): 0
- S. Flatsedge plant response rating (smallflower flatsedge; [4]): 0
- Bedstraw plant response rating (bedstraw; [5]): 0
- Plant response rating, Bedstraw (bedstraw; [6]): 7
- Bedstraw plant response rating (bedstraw; [7]): 0
- Bedstraw plant response rating (bedstraw; [8]): 0
- Bedstraw plant response rating (0 to 10 scale) (bedstraw; Preemergence, Rate 250 g/ha): 2
- Bedstraw plant response rating (bedstraw; [9]): 8
- Plant response rating, Barnyardgrass (0 to 10 scale, 0 is no effect, 10 is complete control) (bamyardgrass; [1]): 0
- Barnyardgrass plant response rating (0 to 10 scale, 0 is no effect, 10 is complete control) (bamyardgrass; [2]): 0
- Barnyardgrass plant response rating (bamyardgrass; [3]): 0
- Barnyardgrass plant response rating (bamyardgrass; [4]): 0
- Cocklebur plant response rating (cocklebur; [5]): 0
- Cocklebur plant response rating (cocklebur; [11]): 0
- Plant response rating, Cocklebur (cocklebur; [6]): 0
- Cocklebur plant response rating (cocklebur; [7]): 0
- Cocklebur plant response rating (cocklebur; [8]): 0
- Cocklebur plant response rating (0 to 10 scale) (cocklebur; Preemergence, Rate 250 g/ha): 0
- Cocklebur plant response rating (cocklebur; [9]): 0
- Plant response rating, Cocklebur (cocklebur; [10]): 0
- Blackgrass plant response rating (blackgrass; [5]): 2
- Blackgrass plant response rating (blackgrass; [11]): 5
- Plant response rating, Blackgrass (blackgrass; [6]): 6
- Blackgrass plant response rating (blackgrass; [7]): 5
- Blackgrass plant response rating (blackgrass; [8]): 7
- Blackgrass plant response rating (0 to 10 scale) (blackgrass; Preemergence, Rate 250 g/ha): 9
- Blackgrass plant response rating (blackgrass; [9]): 9
- Plant response rating, Blackgrass (blackgrass; [10]): 6
- Corn plant response rating (corn; [5]): 0
- Corn plant response rating (corn; [11]): 0
- Plant response rating, Corn (corn; [6]): 3
- Corn plant response rating (corn; [7]): 0
- Corn plant response rating (corn; [8]): 0
- Corn plant response rating (0 to 10 scale) (corn; Preemergence, Rate 250 g/ha): 2
- Corn plant response rating (corn; [9]): 5
- Plant response rating, Corn (corn; [10]): 0
- Sugarbeets plant response rating (sugar beet; [5]): 0
- Plant response rating, Sugarbeets (sugar beet; [6]): 4
- Sugarbeets plant response rating (sugar beet; [7]): 0
- Sugarbeets plant response rating (sugar beet; [8]): 0
- Sugarbeets plant response rating (0 to 10 scale) (sugar beet; Preemergence, Rate 250 g/ha): 2
- Sugarbeets plant response rating (sugar beet; [9]): 8
- Giant foxtail plant response rating (giant foxtail; [5]): 2
- Giant foxtail plant response rating (giant foxtail; [11]): 4
- Plant response rating, Giant foxtail (giant foxtail; [6]): 8
- Giant foxtail plant response rating (giant foxtail; [7]): 0
- Giant foxtail plant response rating (giant foxtail; [8]): 6
- Giant foxtail plant response rating (0 to 10 scale) (giant foxtail; Preemergence, Rate 250 g/ha): 6
- Giant foxtail plant response rating (giant foxtail; [9]): 7
- Plant response rating, Giant foxtail (giant foxtail; [10]): 7
- B. signalgrass plant response rating (surinam grass; [5]): 0
- B. signalgrass plant response rating (surinam grass; [11]): 0
- Plant response rating, B. signalgrass (surinam grass; [6]): 8
- B. signalgrass plant response rating (surinam grass; [7]): 4
- B. signalgrass plant response rating (surinam grass; [8]): 4
- B. signalgrass plant response rating (0 to 10 scale, 0 is no effect, 10 is complete control) (surinam grass; Preemergence, Rate 250 g/ha): 8
- B. signalgrass plant response rating (surinam grass; [9]): 9
- Plant response rating, B. signalgrass (surinam grass; [10]): 6
